Data on 8 molecules can be found in patent US20250140406A1, “CLASSIFYING TUMORS AND PREDICTING RESPONSIVENESS” (Oncocyte Corporation, priority 2022, published 2025).

Each structure is given as a SMILES string.

Experiment [1] deals with NSCLC cell lines (xenograft models). The note with it: of the 10 NSCLC cell lines, GSE109302; cited from earlier work.
The subject of experiment [2] is Representative Cell Lines of TNBC tumor subtypes. The note with it: TNBC subtypes from Lehmann et al.; cited from earlier work.
For experiment [3], the system named is cancer cell lines classified IM, MSL, M. Briefly: Cancer Therapeutics Response Portal (CTRP) small-molecule sensitivity correlated with IM, MSL and M subtype. The note with it: CTRP and PRISM screens; IM class by 101 gene signature. Type of experiment: cell-based. As to the method:
Compound correlations where the correlation was negative, indicating sensitivity to the compound, and with a q value less than 0.05 were assessed.

In experiment [4] the test system is cancer cell lines, DetermaIO classes. Briefly: Association of PRISM compound sensitivity with DetermaIO (DTIO) cell line classes. It counts as cell-based.
Experiment [5] deals with cancer cell lines classified IM, MSL, M. Briefly: PRISM screen compound sensitivity correlated with IM, MSL and M subtype of cell lines (101 gene signature). It counts as cell-based. To be noted: test cell set (188 cell lines).
Experiment [6] relates to cancer cell lines. Briefly: Correlation of gene expression with PRISM compound sensitivity across cell lines (gene:compound correlate pairs). It counts as cell-based. Further details: key: Pearson correlation of gene expression with compound sensitivity. The note with it: for compound gene test corr: test cell lines; for compound gene train corr: training cell lines. The method, then: This list of genes (based upon gene expression and gene dependency) was analyzed by Pearson correlation with the compound sensitivity data across the training cell lines. Correlation values, p values, q values and local false discovery rates were calculated. This analysis was repeated using the same set of compounds and genes on the test set of cell lines.
A negative correlation means that the importance of the expression of that gene to cell health was linked to increased compound sensitivity. • compound gene dep train pvalue: Measure of significance for this association. • compound gene dep test corr: Correlation of gene dependency with compound sensitivity in the test data set. • TNBCType train: Classification of association of the compound sensitivity with the IM, MSL and M cell line classes in the training data set. • DTIO Corr train: Association of the compound sensitivity with the DetermaIO cell line classes in the training data set. • TNBCType test: Classification of the association of the compound sensitivity with the IM, MSL and M cell line classes in the test data set. • DTIO Corr test: Association of the compound sensitivity with the DetermaIO cell line classes in the test data set.

With `COc1cc(C(=O)NC2CCN(C)CC2)c(F)cc1Nc1ncc(C(F)(F)F)c(Oc2cccc3c2C(=O)N(C)C3)n1` [BI 853520], in experiment [1], the “Number of NSCLC cell lines resistant to the drug” value is listed as “five” and the “Number of NSCLC cell lines sensitive to the drug” value is “five”.

With `CC(O)(CS(=O)(=O)c1ccc(F)cc1)C(=O)Nc1ccc(C#N)c(C(F)(F)F)c1` (centres unmarked) [Bicalutimide], the “Tumor subtype whose representative cell lines respond to the treatment” value in experiment [2] was “LAR”.

With `N.N.[Cl][Pt][Cl]` [Cisplatin], the “Tumor subtype whose representative cell lines respond to the treatment” value in experiment [2] was “BL1 and BL2”.

Consider `Cc1nc(Nc2ncc(C(=O)Nc3c(C)cccc3Cl)s2)cc(N2CCN(CCO)CC2)n1` [Dasantinib], for which the “Tumor subtype whose representative cell lines respond to the treatment” value in experiment [2] is “M and MSL”.

`Cn1c(=O)n(-c2ccc(C(C)(C)C#N)cc2)c2c3cc(-c4cnc5ccccc5c4)ccc3ncc21` [NVP-BEX235]: the “Tumor subtype whose representative cell lines respond to the treatment” value in experiment [2] is “M and MSL”.

`C=CC(=O)Nc1cc2c(Nc3ccc(F)c(Cl)c3)ncnc2cc1OCCCN1CCOCC1` [canertinib]: the “Sensitivity of tumors of the IM class to the compound” value in experiment [3] was “especially sensitive”.

Consider `CS(=O)(=O)CCNCc1ccc(-c2ccc3ncnc(Nc4ccc(OCc5cccc(F)c5)c(Cl)c4)c3c2)o1` [lapatinib], for which the “Sensitivity of tumors of the IM class to the compound” value in experiment [3] is listed as “especially sensitive”.

In the case of `CC1(S(=O)(=O)[O-])CC(=O)c2ccccc2C1=O.[Na+]` (centres unmarked) [menadione-bisulfite], the “DTIO Corr test” value in experiment [4] (correlation of PRISM compound sensitivity with DTIO, test cell set) was found to be 0.1362; in experiment [4] (test set) it was 0.1362. Besides, the “DTIO Corr train” value is 0.003549 in experiment [4] (correlation of PRISM compound sensitivity with DTIO, training cell set) and 0.003549 in experiment [4] (training set). Also, the “IM Corr test” value in experiment [5] (correlation of PRISM compound sensitivity with IM subtype correlation) came to 0.1925. Besides, the “M Corr test” value in experiment [5] (correlation of PRISM compound sensitivity with M subtype correlation) is on record as −0.2026. The “MSL Corr test” value in experiment [5] (correlation of PRISM compound sensitivity with MSL subtype correlation) is on record as −0.1086. Besides, the “compound gene test corr” value in experiment [6] (gene CHL1) was −0.2459; in experiment [6] (gene COL19A1), −0.2615; in experiment [6] (gene DSTYK), −0.2853; in experiment [6] (gene FCGR2A), −0.2554; in experiment [6] (gene FCRLA), −0.2647; in experiment [6] (gene GHR), −0.2974. Moreover, the “compound gene test corr” value is on record as −0.3259 in experiment [6] (gene LUM); −0.3133 in experiment [6] (gene LZTS1); −0.3161 in experiment [6] (gene NCKAP5L); −0.2585 in experiment [6] (gene P2RX7); −0.2511 in experiment [6] (gene PLEKHO1); −0.3003 in experiment [6] (gene PLEKHO2). Besides, the “compound gene test corr” value in experiment [6] (gene PLP1) is −0.2422; in experiment [6] (gene PLPP7), −0.2843; in experiment [6] (gene QKI), −0.2736; in experiment [6] (gene SYNM), −0.2591; in experiment [6] (gene TAMALIN) it was −0.254; in experiment [6] (gene WWTR1) it was −0.2508. In addition, the “compound gene test corr” value in experiment [6] (gene ZCCHC24) was −0.3161. Also, the “compound gene train corr” value was −0.1641 in experiment [6] (gene CHL1); −0.2071 in experiment [6] (gene COL19A1); −0.1942 in experiment [6] (gene DSTYK); −0.1722 in experiment [6] (gene FCGR2A); −0.2401 in experiment [6] (gene FCRLA); −0.1701 in experiment [6] (gene GHR). The “compound gene train corr” value in experiment [6] (gene LUM) is recorded as −0.1958; in experiment [6] (gene LZTS1), −0.1907; in experiment [6] (gene NCKAP5L) it was −0.1648; in experiment [6] (gene P2RX7), −0.2054; in experiment [6] (gene PLEKHO1), −0.1601; in experiment [6] (gene PLEKHO2), −0.2127. Moreover, the “compound gene train corr” value in experiment [6] (gene PLP1) was −0.2332; in experiment [6] (gene PLPP7) it was −0.1831; in experiment [6] (gene QKI), −0.2164; in experiment [6] (gene SYNM), −0.1742; in experiment [6] (gene TAMALIN) it was −0.1641; in experiment [6] (gene WWTR1), −0.1794. The “compound gene train corr” value in experiment [6] (gene ZCCHC24) was −0.1708.
